Test system: GB126, GB239 and GB86 patient-derived cell lines
Assay: In vitro single-cell RNA sequencing, analyses across the cell lines (pseudobulk differential gene expression, GSEA, non-cycling cells)
Type: cell-based, human
Conditions: pseudobulk, ribociclib versus control (DMSO)
Procedure: Patient-derived glioma stem cell lines (GSCs; GB126, GB86, and GB239) were established from resected GBM tumor tissue. Cell lines were genetically profiled for mutations and copy number aberrations using the IvySeq custom gene panel. […] GB239 was derived from a tumor sample included in this Phase 0 trial (tumor sample: 100-0039). All human GSCs were cultured as described previously.[12]
Following the fifth day of drug exposure, cells were harvested, cryopreserved to be processed at a later point, or immediately processed for single-cell RNA sequencing (10x Genomics, 3’ version 3). The single-cell RNA sequencing data were then processed via cellranger count and Seurat. Briefly, cells were filtered out based on the following criteria: minimum number of genes detected >500 and <10 000 with a maximum percentage of mitochondrial genes set to 10%. Statistical assessment was made between the malignant proportions of each cell state using a 2-sided paired t-test.
Descriptive statistics of the clinical data are included in Table 1. Comparisons between groups were conducted using a 2-sided or paired 2-sided t-test, where indicated. P < .05 was considered significant. Multiple hypothesis test corrections (ie, false discovery rate correction) were applied for snRNAseq pseudobulk differential expression analysis.

Q: How did the “log2FoldChange ABCA6” value (gene ABCA6) turn out when `CN(C)C(=O)c1cc2cnc(Nc3ccc(N4CCNCC4)cn3)nc2n1C1CCCC1` [ribo] was run?
A: 1.5

Q: What about the “log2FoldChange ABCA8” value (gene ABCA8) of the same compound?
A: 1.548

Q: What about the “log2FoldChange AC002074.1” value (gene AC002074.1) of the same compound?
A: 1.866

Q: What about the “log2FoldChange AC002383.1” value (gene AC002383.1) of the same compound?
A: 1.53

Q: What about the “log2FoldChange AC004828.1” value (gene AC004828.1) of the same compound?
A: 1.459

Q: And the “log2FoldChange AC005538.3” value (gene AC005538.3)?
A: 2.148

Q: And the “log2FoldChange AC007317.2” value (gene AC007317.2)?
A: 2.061

Q: What about the “log2FoldChange AC009313.1” value (gene AC009313.1) of the same compound?
A: 1.78

Q: And the “log2FoldChange AC009975.2” value (gene AC009975.2)?
A: 1.436

Q: What about the “log2FoldChange AC010230.1” value (gene AC010230.1) of the same compound?
A: 1.7556

Q: What about the “log2FoldChange AC010551.3” value (gene AC010551.3) of the same compound?
A: 1.556

Q: And the “log2FoldChange AC012038.2” value (gene AC012038.2)?
A: 2.048

Q: What about the “log2FoldChange AC012405.1” value (gene AC012405.1) of the same compound?
A: 1.439

Q: What about the log2FoldChange (gene AC012533.1) of the same compound?
A: -1.092

Q: And the “log2FoldChange AC012625.1” value (gene AC012625.1)?
A: 1.675

Q: And the “log2FoldChange AC013480.1” value (gene AC013480.1)?
A: 1.662

Q: What about the “log2FoldChange AC020892.1” value (gene AC020892.1) of the same compound?
A: 1.613

Q: And the “log2FoldChange AC023644.1” value (gene AC023644.1)?
A: 1.813

Q: What about the log2FoldChange (gene AC024884.2) of the same compound?
A: -1.745

Q: What about the “log2FoldChange AC025263.1” value (gene AC025263.1) of the same compound?
A: 1.435

Q: What about the log2FoldChange (gene AC026333.4) of the same compound?
A: -1.805

Q: What about the “log2FoldChange AC026888.1” value (gene AC026888.1) of the same compound?
A: 1.994

Q: And the “log2FoldChange AC027117.1” value (gene AC027117.1)?
A: 1.702

Q: What about the “log2FoldChange AC055874.1” value (gene AC055874.1) of the same compound?
A: 1.6992

Q: And the “log2FoldChange AC073611.1” value (gene AC073611.1)?
A: 1.444

Q: And the “log2FoldChange AC079117.1” value (gene AC079117.1)?
A: 1.6417

Q: And the “log2FoldChange AC090403.1” value (gene AC090403.1)?
A: 1.628

Q: What about the “log2FoldChange AC091953.1” value (gene AC091953.1) of the same compound?
A: 1.742

Q: What about the “log2FoldChange AC092604.1” value (gene AC092604.1) of the same compound?
A: 1.65

Q: What about the “log2FoldChange AC092617.1” value (gene AC092617.1) of the same compound?
A: 2.048

Q: What about the “log2FoldChange AC092691.3” value (gene AC092691.3) of the same compound?
A: 1.975

Q: What about the “log2FoldChange AC096576.2” value (gene AC096576.2) of the same compound?
A: 1.586

Q: And the “log2FoldChange AC096576.3” value (gene AC096576.3)?
A: 1.66

Q: What about the “log2FoldChange AC097375.4” value (gene AC097375.4) of the same compound?
A: 1.562

Q: What about the log2FoldChange (gene AC099850.3) of the same compound?
A: -1.64

Q: And the “log2FoldChange AC100835.2” value (gene AC100835.2)?
A: 1.894

Q: And the “log2FoldChange AC104078.2” value (gene AC104078.2)?
A: 1.507

Q: And the “log2FoldChange AC104574.1” value (gene AC104574.1)?
A: 1.483

Q: What about the “log2FoldChange AC106874.1” value (gene AC106874.1) of the same compound?
A: 1.556

Q: What about the “log2FoldChange AC109129.1” value (gene AC109129.1) of the same compound?
A: 1.6709

Q: What about the “log2FoldChange AC110296.1” value (gene AC110296.1) of the same compound?
A: 1.762

Q: What about the “log2FoldChange AC114546.2” value (gene AC114546.2) of the same compound?
A: 1.559

Q: And the “log2FoldChange AC114964.2” value (gene AC114964.2)?
A: 1.675

Q: And the log2FoldChange (gene AC116914.1)?
A: -1.614

Q: What about the “log2FoldChange AC121154.1” value (gene AC121154.1) of the same compound?
A: 1.879

Q: What about the “log2FoldChange AC132153.1” value (gene AC132153.1) of the same compound?
A: 1.518

Q: What about the “log2FoldChange AC133530.1” value (gene AC133530.1) of the same compound?
A: 1.513

Q: And the “log2FoldChange AC137579.1” value (gene AC137579.1)?
A: 1.549

Q: What about the log2FoldChange (gene AC138819.1) of the same compound?
A: -1.883

Q: And the “log2FoldChange ACSM5” value (gene ACSM5)?
A: 2.672

Q: And the log2FoldChange (gene ACYP1)?
A: -1.092

Q: And the “log2FoldChange ADAMTS4” value (gene ADAMTS4)?
A: 1.636

Q: What about the “log2FoldChange ADCY5” value (gene ADCY5) of the same compound?
A: 1.503

Q: What about the “log2FoldChange ADGRA1-AS1” value (gene ADGRA1-AS1) of the same compound?
A: 1.641

Q: And the “log2FoldChange ADH1A” value (gene ADH1A)?
A: 1.456

Q: And the “log2FoldChange AL022324.3” value (gene AL022324.3)?
A: 1.692

Q: What about the log2FoldChange (gene AL031658.2) of the same compound?
A: -1.667

Q: What about the “log2FoldChange AL132633.1” value (gene AL132633.1) of the same compound?
A: 1.623

Q: What about the log2FoldChange (gene AL132655.3) of the same compound?
A: -1.059

Q: And the “log2FoldChange AL135934.1” value (gene AL135934.1)?
A: 1.5674

Q: And the log2FoldChange (gene AL138789.1)?
A: -1.6906

Q: And the “log2FoldChange AL158058.1” value (gene AL158058.1)?
A: 2.1266

Q: What about the “log2FoldChange AL162385.1” value (gene AL162385.1) of the same compound?
A: 2.332

Q: What about the “log2FoldChange AL354813.1” value (gene AL354813.1) of the same compound?
A: 1.4344

Q: What about the “log2FoldChange AL355916.2” value (gene AL355916.2) of the same compound?
A: 1.536

Q: What about the log2FoldChange (gene AL356094.2) of the same compound?
A: -1.675

Q: What about the “log2FoldChange AL358394.1” value (gene AL358394.1) of the same compound?
A: 2.818

Q: What about the log2FoldChange (gene AL390839.2) of the same compound?
A: -1.735

Q: And the “log2FoldChange AL391730.2” value (gene AL391730.2)?
A: 1.804

Q: And the “log2FoldChange AL445423.1” value (gene AL445423.1)?
A: 1.473

Q: And the “log2FoldChange AL591686.1” value (gene AL591686.1)?
A: 1.912

Q: What about the log2FoldChange (gene AL645608.7) of the same compound?
A: -1.064

Q: And the log2FoldChange (gene ANP32E)?
A: -1.059

Q: And the “log2FoldChange AP000569.1” value (gene AP000569.1)?
A: 1.498

Q: And the “log2FoldChange AP000857.2” value (gene AP000857.2)?
A: 1.634

Q: And the “log2FoldChange AP001825.1” value (gene AP001825.1)?
A: 1.5203

Q: What about the “log2FoldChange AP002370.2” value (gene AP002370.2) of the same compound?
A: 1.537

Q: What about the “log2FoldChange AP002761.2” value (gene AP002761.2) of the same compound?
A: 1.672

Q: And the log2FoldChange (gene ARHGAP11A)?
A: -1.6744

Q: What about the “log2FoldChange ARHGAP26-IT1” value (gene ARHGAP26-IT1) of the same compound?
A: 2.344

Q: What about the log2FoldChange (gene ARNTL2) of the same compound?
A: -1.092

Q: And the “log2FoldChange ASB9” value (gene ASB9)?
A: 1.438

Q: What about the “log2FoldChange BAIAP3” value (gene BAIAP3) of the same compound?
A: 1.561

Q: What about the “log2FoldChange BBOX1” value (gene BBOX1) of the same compound?
A: 1.457

Q: And the log2FoldChange (gene BRIP1)?
A: -1.784

Q: What about the “log2FoldChange BST2” value (gene BST2) of the same compound?
A: 1.645

Q: And the log2FoldChange (gene BUB1)?
A: -1.8

Q: And the log2FoldChange (gene C1QTNF2)?
A: -1.812

Q: And the “log2FoldChange C1orf147” value (gene C1orf147)?
A: 1.503

Q: And the “log2FoldChange C16orf89” value (gene C16orf89)?
A: 1.4386

Q: And the “log2FoldChange C20orf78” value (gene C20orf78)?
A: 1.576

Q: And the log2FoldChange (gene C21orf58)?
A: -1.614

Q: What about the “log2FoldChange CALB2” value (gene CALB2) of the same compound?
A: 2.123

Q: And the log2FoldChange (gene CAMK2N2)?
A: -1.147

Q: What about the log2FoldChange (gene CCDC74A) of the same compound?
A: -1.6

Q: And the log2FoldChange (gene CCDC74B)?
A: -1.688

Q: And the log2FoldChange (gene CCNE2)?
A: -1.873

Q: What about the log2FoldChange (gene CCNF) of the same compound?
A: -1.863

Q: And the log2FoldChange (gene CDCA4)?
A: -1.7252

Q: What about the log2FoldChange (gene CDKN3) of the same compound?
A: -1.855

Q: What about the log2FoldChange (gene CHAF1B) of the same compound?
A: -1.654

Q: What about the “log2FoldChange CHGA” value (gene CHGA) of the same compound?
A: 1.609

Q: What about the “log2FoldChange CHI3L1” value (gene CHI3L1) of the same compound?
A: 1.918

Q: And the “log2FoldChange CHL1-AS1” value (gene CHL1-AS1)?
A: 1.667

Q: And the “log2FoldChange CHST4” value (gene CHST4)?
A: 1.465

Q: And the “log2FoldChange CLEC1A” value (gene CLEC1A)?
A: 1.693

Q: What about the log2FoldChange (gene CRHR1) of the same compound?
A: -1.091

Q: What about the “log2FoldChange CYP4Z1” value (gene CYP4Z1) of the same compound?
A: 1.554

Reference: publication PMC13070491, “Single-nucleus transcriptomics, pharmacokinetics, and pharmacodynamics of CDK4/6 and mTOR inhibition in a Phase 0/1 trial of recurrent high-grade glioma” (Neuro-Oncology, 2025)
